Reference: the supplement of paper PMC10307832

Experiments:
Assay in all cases: relative viability (nuclei count vs DMSO), 5 days (fraction); higher = more cells survive
[1] = compound: C1=CC=C(C(=C1)C2=CC=C(C=C2)C3=CSC4=C3C(=C(C(=O)N4)C#N)O)O + O=C(CCCCCCC(=O)Nc1ccccc1)NO [Vorinostat] (partner 1 µM)
How it was run: (§1)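 Relative viability is defined as nuclei in treated wells over nuclei in vehicle wells. Duplicate plates were run and medians reported. Lung cancer cell lines in 1536-well plates were dosed by pin tool one day after seeding, with one drug or with a fixed anchor-drug dose plus five library-drug doses (not always all listed) in √10 steps, and nuclei were counted after 5 days.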

[2] = compound: CC1=CN2C(=O)C=C(N=C2C(=C1)C(C)NC3=CC=CC=C3)N4CCOCC4 [TGX 221] + Cc1nc(NC(=O)N2CCC[C@H]2C(N)=O)sc1-c1ccnc(C(C)(C)C(F)(F)F)c1 [Alpelisib] (partner 2 µM)
How it was run: as §1

[3] = compound: CC1=CN2C(=O)C=C(N=C2C(=C1)C(C)NC3=CC=CC=C3)N4CCOCC4 [TGX 221] + CC(C)C[C@H](NC(=O)[C@H](Cc1ccccc1)NC(=O)c1cnccn1)B(O)O [Bortezomib] (partner 0.002 µM)
How it was run: as §1

[4] = compound: C1=CC=C(C(=C1)C2=CC=C(C=C2)C3=CSC4=C3C(=C(C(=O)N4)C#N)O)O + NC(=O)Nc1cc(-c2cccc(F)c2)sc1C(=O)N[C@H]1CCCNC1 [AZD7762] (partner 0.2 µM)
How it was run: as §1

Cell Line	relative viability ([1]; first compound 0.08 µM)	relative viability ([1]; first compound 0.253 µM)	relative viability ([1]; first compound 0.8 µM)	relative viability ([1]; first compound 2.53 µM)	relative viability ([1]; first compound 8 µM)	relative viability ([2]; first compound 0.08 µM)	relative viability ([2]; first compound 0.253 µM)	relative viability ([2]; first compound 0.8 µM)	relative viability ([2]; first compound 2.53 µM)	relative viability ([2]; first compound 8 µM)	relative viability ([3]; first compound 0.08 µM)	relative viability ([3]; first compound 0.253 µM)	relative viability ([3]; first compound 0.8 µM)	relative viability ([3]; first compound 2.53 µM)	relative viability ([3]; first compound 8 µM)	relative viability ([4]; first compound 0.08 µM)	relative viability ([4]; first compound 0.253 µM)	relative viability ([4]; first compound 0.8 µM)	relative viability ([4]; first compound 2.53 µM)	relative viability ([4]; first compound 8 µM)
NCI-H2228	0.555	0.557	0.648	0.524	0.36	0.693	0.468	0.551	0.523	0.403	1.02	0.787	1.21	0.77	0.751					
NCI-H2342	0.801	0.83	0.871	0.71	0.586											0.432	0.536	0.446	0.474	0.358
IA-LM		1.37	0.856	1	0.376	0.753	0.818	0.792	0.614	0.589	0.915	1.02	1.04	0.869	0.735					
A549						0.63	0.52	0.542	0.377	0.28										
NCI-H1793	0.58	1.05	0.497	0.634	0.681	0.611	0.503	0.482	0.446	0.406						0.401	0.411	0.473	0.53	0.432
NCI-H1650	0.462	0.546	0.498	0.531	0.435						0.2	0.22	0.213	0.198	0.201					
NCI-H1299						0.991	1.07	1.12	1.14	1.17	0.985	1	0.989	1.03	0.948					
SK-MES-1	1.1	1.17	0.911	1.06	0.923	0.843	0.628	0.785	0.549	0.476										
LK-2	0.22	0.26	0.28	0.321	0.255	1.02	1.05	0.959	0.665	1						0.309	0.522	0.277	0.517	0.274
NCI-H661	0.803	0.836	0.772	0.84	0.6	0.45	0.52	0.201	0.559	0.516	0.689	0.59	0.75	0.677	0.668					
NCI-H520	0.655	0.571	0.69	0.726	0.604	0.696	0.45	0.42	0.243	0.254	0.345	0.457	0.56	0.263	0.309					
NCI-H2009	0.728	0.715	0.859	0.716	0.638	1.16	1.07	1.1	0.907	0.733	0.995	1.02	1.02	0.948	0.769					
COR-L 105	0.763	0.807	0.805	1.01	0.706	1.02	0.838	0.697	0.609	0.361	0.832	0.816	1.01	0.698	0.736					
SW 900		0.633	0.412	0.406	0.358												0.625	0.607	0.692	0.563
NCI-H1395		0.683	0.551	0.618	0.606	0.935	1.16	0.89	0.514	0.584							0.397	0.395	0.353	0.419
NCI-H1703						0.269	0.222	0.176	0.267	0.235	0.244	0.323	0.305	0.234	0.281	0.113	0.147	0.111	0.15	0.148
SW 1573	0.701	0.723	0.716	0.76	0.59	0.63	0.495	0.577	0.433	0.393	0.91	1.09	1.04	0.945	0.839					
NCI-H522	0.929	0.898	1.06	0.921	0.86											0.802	0.871	0.869	0.898	0.772
UMC-11		0.352	0.409	0.381	0.412	0.955	0.961	0.966	1.03	1.06	0.873	0.772	0.823	0.745	0.796					
NCI-H2023	0.677	0.793	0.56	0.725	0.453	0.599	0.452	0.524	0.311	0.268	0.947	0.864	1.06	0.861	0.857					
COR-L23	0.404	0.477	0.409	0.38	0.379	0.807	0.659	0.759	0.722	0.742	0.876	0.964	0.928	1.06	1.01					
Calu-6						0.986	0.8	0.948	0.917	0.883	1.02	0.973	1.22	1	0.896					
NCI-H1944	0.682	0.637	0.571	0.479	0.478	0.77	0.713	0.554	0.488	0.422						0.67	0.537	0.696	0.469	0.603
EBC-1						0.738	0.526	0.426	0.321	0.32	0.523	0.51	0.619	0.4	0.408					
NCI-H358	0.641	0.647	0.666	0.839	0.484	0.723	0.75	0.828	0.85	0.726						0.486	0.542	0.532	0.605	0.488
